{"source": "patent US20240327389A1", "about": "“LACTONE AND LACTAM CONTAINING COMPOUNDS USEFUL AS IMMUNOMODULATORS” (BRISTOL-MYERS SQUIBB COMPANY, priority 2021, published 2024)"}
{"biological_target": "PD-1/PD-L1 interaction (PD-1-Ig / PD-L1-His) (Homo sapiens (Human), UniProt Q9NZQ7)", "sequence (Q9NZQ7 18-239)": "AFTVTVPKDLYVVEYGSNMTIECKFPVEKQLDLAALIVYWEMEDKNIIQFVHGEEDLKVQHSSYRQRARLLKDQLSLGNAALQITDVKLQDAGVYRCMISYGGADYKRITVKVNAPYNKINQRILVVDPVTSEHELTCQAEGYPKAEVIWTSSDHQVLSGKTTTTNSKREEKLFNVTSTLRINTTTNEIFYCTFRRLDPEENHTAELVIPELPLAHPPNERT", "test": "PD-1/PD-L1 Homogenous Time-Resolved Fluorescence (HTRF) binding assay", "details": "PD-L1-His 10 nM final, PD-1-Ig 20 nM final", "description": "The ability of the compounds of the invention to bind to PD-L1 was investigated using a PD-1/PD-L1 Homogenous Time-Resolved Fluorescence (HTRF) binding assay.\nThe interaction of PD-1 and PD-L1 can be assessed using soluble, purified preparations of the extracellular domains of the two proteins. The PD-1 and PD-L1 protein extracellular domains were expressed as fusion proteins with detection tags, for PD-1, the tag was the Fc portion of Immunoglobulin (PD-1-Ig) and for PD-L1 it was the 6 histidine motif (PD-L1-His). All binding studies were performed in an HTRF assay buffer consisting of dPBS supplemented with 0.1% […] bovine serum albumin and 0.05% (v/v) Tween-20. For the h/PD-L1-His binding assay, inhibitors were pre-incubated with PD-L1-His (10 nM final) for 15 m in 4 μl of assay buffer, followed by addition of PD-1-Ig (20 nM final) in 1 μl of assay buffer and further incubation for 15 m. HTRF detection was achieved using europium crypate-labeled anti-Ig (1 nM final) and allophycocyanin (APC) labeled anti-His (20 nM final). Antibodies were diluted in HTRF detection buffer and 5 μl was dispensed on top of the binding reaction. The reaction mixture was allowed to equilibrate for 30 minutes and the resulting signal (665 nm/620 nm ratio) was obtained using an EnVision fluorometer. Additional binding assays were established between the human proteins PD-1-Ig/PD-L2-His (20 & 5 nM, respectively) and CD80-His/PD-L1-Ig (100 & 10 nM, respectively).\nRecombinant Proteins: Human PD-1 (25-167) with a C-terminal human Fc domain of immunoglobulin G (Ig) epitope tag [hPD-1 (25-167)-3S-IG] and human PD-L1 (18-239) with a C-terminal His epitope tag [hPD-L1(18-239)-TVMV-His] were expressed in HEK293T cells and purified sequentially by ProteinA affinity chromatography and size exclusion chromatography. Human PD-L2-His and CD80-His was obtained through commercial sources.\nHomogenous Time-Resolved Fluorescence (HTRF) Assays of Binding of Soluble PD-1 to Soluble PD-L1. Soluble PD-1 and soluble PD-L1 refers to proteins with carboxyl-end truncations that remove the transmembrane-spanning regions and are fused to heterologous sequences, specifically the Fc portion of the human immunoglobuling G sequence (Ig) or the hexahistidine epitope tag (His). All binding studies were performed in an HTRF assay buffer consisting of dPBS supplemented with 0.1% (w/v) bovine serum albumin and 0.05% (v/v) Tween-20. For the PD-1-Ig/PD-L1-His binding assay, inhibitors were pre-incubated with PD-L1-His (10 nM final) for 15 m in 4 μl of assay buffer, followed by addition of PD-1-Ig (20 nM final) in 1 μl of assay buffer and further incubation for 15 m. PD-L1 fusion proteins from either human, cynomologous macaques, mouse, or other species were used. HTRF detection was achieved using europium crypate-labeled anti-Ig monoclonal antibody (1 nM final) and allophycocyanin (APC) labeled anti-His monoclonal antibody (20 nM final). Antibodies were diluted in HTRF detection buffer and 5 μl was dispensed on top of binding reaction. The reaction was allowed to equilibrate for 30 minutes and signal (665 nm/620 nm ratio) was obtained using an EnVision fluorometer. Additional binding assays were established between PD-1-Ig/PD-L2-His (20 and 5 nM, respectively), CD80-His/PD-L1-Ig (100 and 10 nM, respectively) and CD80-His/CTLA4-Ig (10 and 5 nM, respectively).\nRecombinant Proteins. Carboxyl-truncated human PD-1 (amino acids 25-167) with a C-terminal human Ig epitope tag [hPD-1 (25-167)-3S-IG] and human PD-L1 (amino acids 18-239) with a C-terminal His epitope tag [hPD-L1(19-239)-tobacco vein mottling virus protease cleavage site (TVMV)-His] were expressed in HEK293T cells and purified sequentially by recombinant Protein A affinity chromatography and size exclusion chromatography. Human PD-L2-His (Sino Biologicals), CD80-His (Sino Biologicals), CTLA4-Ig (RnD Systems) were all obtained through commercial sources.", "units": {"IC50": "nM"}}
{"smiles": "Cc1c(COc2cc3c(cc2Cl)CN(C2CCOC2=O)C(=O)CO3)cccc1-c1cccc(OCC2CCCN(C)C2)c1Cl", "note": "(stereo not drawn) [Compound 1047]", "IC50": 388}
{"smiles": "COc1cc(OCc2cccc(-c3cccc(OCC4CCCN(C)C4)c3Cl)c2C)c(Cl)cc1CNC1(C)CCOC1=O", "note": "(stereo not drawn) [Compound 1036]", "IC50": 7.3}
{"smiles": "Cc1c(COc2cc(O)c(CNC3(C)CCOC3=O)cc2Cl)cccc1-c1cccc(OCC2CCCN(C)C2)c1Cl", "note": "(stereo not drawn) [Compound 1029]", "IC50": 132}
{"smiles": "Cc1c(COc2cc(OCc3cncc(C#N)c3)c(CNC3CC(C)(C)OC3=O)cc2Cl)cccc1-c1cccc(OCC2CCCN(C)C2)c1Cl", "note": "(stereo not drawn) [Compound 1007]", "IC50": 3.5}
{"smiles": "COc1cc(OCc2cccc(-c3cccc(OCC4CCCN(C)C4)c3Cl)c2C)c(Cl)cc1CNC1(C)CC(C)(C)OC1=O", "note": "(stereo not drawn) [Compound 1039]", "IC50": 19.6}
{"smiles": "Cc1c(COc2cc(OCc3cncc(C#N)c3)c(CNC3CCCNC3=O)cc2Cl)cccc1-c1cccc(OCC2CCCN(C)C2)c1Cl", "note": "(stereo not drawn) [Compound 1014]", "IC50": 3.2}
{"smiles": "Cc1c(COc2cc(OCc3cncc(C#N)c3)c(CNC3CC(C)OC3=O)cc2Cl)cccc1-c1cccc(COc2cc(OCc3cncc(C#N)c3)c(CNC3CC(C)OC3=O)cc2Cl)c1C", "note": "(stereo not drawn) [Compound 1024]", "IC50": 21.4}
{"smiles": "Cc1c(COc2cc(OCc3cncc(C#N)c3)c(CN[C@H]3CCOC3=O)cc2Cl)cccc1-c1cccc(OCC2CCCN(C)C2)c1Cl", "note": "(stereo partly drawn) [Compound 1001]", "IC50": 2.7}
{"smiles": "Cc1c(COc2cc(OCc3cncc(C#N)c3)c(CNC3CCN(C)C3=O)cc2Cl)cccc1-c1cccc(OCC2CCCN(C)C2)c1Cl", "note": "(stereo not drawn) [Compound 1012]", "IC50": 2.9}
{"smiles": "Cc1c(COc2cc(OCc3cncc(C#N)c3)c(CNC3(C)CCOC3=O)cc2Cl)cccc1-c1cccc(OCC2CCCN(C)C2)c1Cl", "note": "(stereo not drawn) [Compound 1005]", "IC50": 1.7}
{"smiles": "Cc1c(COc2cc(OCc3cncc(C#N)c3)c(CN(C)C3CC(C)OC3=O)cc2Cl)cccc1-c1cccc(COc2cc(OCc3cncc(C#N)c3)c(CN(C)C3CC(C)OC3=O)cc2Cl)c1C", "note": "(stereo not drawn) [Compound 1053]", "IC50": 1470}
{"smiles": "Cc1c(COc2cc3c(cc2Cl)CN(C2CCOC2=O)CC(O)CO3)cccc1-c1cccc(OCC2CCCN(C)C2)c1Cl", "note": "(stereo not drawn) [Compound 1049]", "IC50": 11.5}
{"smiles": "Cc1c(COc2cc(OCc3cncc(C#N)c3)c(CN[C@H]3CCCNC3=O)cc2Cl)cccc1-c1cccc(OCC2CCCN(C)C2)c1Cl", "note": "(stereo partly drawn) [Compound 1013]", "IC50": 4}
{"smiles": "Cc1c(COc2cc(OCc3cncc(C#N)c3)c(CNC3C(=O)OCC3(C)C)cc2Cl)cccc1-c1cccc(COc2cc(OCc3cncc(C#N)c3)c(CNC3C(=O)OCC3(C)C)cc2Cl)c1C", "note": "(stereo not drawn) [Compound 1023]", "IC50": "> 10000"}
{"smiles": "CCN(Cc1cc(Cl)c(OCc2cccc(-c3cccc(COc4cc(OCc5cncc(C#N)c5)c(CN(CC)C5CC(C)OC5=O)cc4Cl)c3C)c2C)cc1OCc1cncc(C#N)c1)C1CC(C)OC1=O", "note": "(stereo not drawn) [Compound 1054]", "IC50": 2520}
{"smiles": "COc1cc(OCc2cccc(-c3cccc(OCC4CCCN(C)C4)c3Cl)c2C)c(Cl)cc1CNC1C(=O)OCC1(C)C", "note": "(stereo not drawn) [Compound 1037]", "IC50": 136}
{"smiles": "COc1cc(OCc2cccc(-c3cccc(OCC4CCCN(C)C4)c3Cl)c2C)c(Cl)cc1CNC1CC(C)(C)OC1=O", "note": "(stereo not drawn) [Compound 1034]", "IC50": 7.4}
{"smiles": "Cc1c(COc2cc(OCc3cncc(C#N)c3)c(CO)cc2Cl)cccc1-c1cccc(COc2cc(OCc3cncc(C#N)c3)c(CNC3(C)CCOC3=O)cc2Cl)c1C", "note": "(stereo not drawn) [Compound 1017]", "IC50": 112}
{"smiles": "Cc1c(COc2cc(OCc3cncc(C#N)c3)c(CNC3CCC(=O)NC3=O)cc2Cl)cccc1-c1cccc(OCC2CCCN(C)C2)c1Cl", "note": "(stereo not drawn) [Compound 1015]", "IC50": 2.4}
{"smiles": "Cc1c(COc2cc(OCc3cncc(C#N)c3)c(CNC3(C)CCOC3=O)cc2Cl)cccc1-c1cccc(COc2cc(OCc3cncc(C#N)c3)c(CNC3(C)CCOC3=O)cc2Cl)c1C", "note": "(stereo not drawn) [Compound 1016]", "IC50": 110}
{"smiles": "Cc1c(COc2cc(O)c(CNC3CC(C)OC3=O)cc2Cl)cccc1-c1cccc(OCC2CCCN(C)C2)c1Cl", "note": "(stereo not drawn) [Compound 1030]", "IC50": 80.1}
{"smiles": "Cc1c(COc2cc(O)c(CN[C@H]3CCOC3=O)cc2Cl)cccc1-c1cccc(OCC2CCCN(C)C2)c1Cl", "note": "(stereo partly drawn) [Compound 1031]", "IC50": 39.3}
{"smiles": "Cc1c(COc2cc(O)c(CN[C@H]3COC(=O)C3)cc2Cl)cccc1-c1cccc(OCC2CCCN(C)C2)c1Cl", "note": "(stereo partly drawn) [Compound 1028]", "IC50": 44.5}
{"smiles": "COc1cc(OCc2cccc(-c3cccc(OCC4CCCN(C)C4)c3Cl)c2C)c(Cl)cc1CN[C@H]1COC(=O)C1", "note": "(stereo partly drawn) [Compound 1042]", "IC50": 5.6}
{"smiles": "Cc1c(COc2cc(OCc3cncc(C#N)c3)c(CN[C@@H]3CCOC3=O)cc2Cl)cccc1-c1cccc(OCC2CCCN(C)C2)c1Cl", "note": "(stereo partly drawn) [Compound 1002]", "IC50": 3.5}
{"smiles": "Cc1c(COc2cc(OCc3cncc(C#N)c3)c(CN(C)C3(C)CCOC3=O)cc2Cl)cccc1-c1cccc(COc2cc(OCc3cncc(C#N)c3)c(CN(C)C3(C)CCOC3=O)cc2Cl)c1C", "note": "(stereo not drawn) [Compound 1051]", "IC50": 383}
{"smiles": "Cc1c(COc2cc(OCc3cncc(C#N)c3)c(CNC3CCNC3=O)cc2Cl)cccc1-c1cccc(OCC2CCCN(C)C2)c1Cl", "note": "(stereo not drawn) [Compound 1027]", "IC50": 2.5}
{"smiles": "Cc1c(COc2cc(OCc3cncc(C#N)c3)c(CNC3CCOC3=O)cc2Cl)cccc1-c1cccc(COc2cc(OCc3cncc(C#N)c3)c(CNC3CCOC3=O)cc2Cl)c1C", "note": "(stereo not drawn) [Compound 1018]", "IC50": 15}
{"smiles": "COc1cc(OCc2cccc(-c3cccc(OCC4CCCN(C)C4)c3Cl)c2C)c(Cl)cc1CNC1CC(C)OC1=O", "note": "(stereo not drawn) [Compound 1033]", "IC50": 11.5}
{"smiles": "CC(=O)N(Cc1cc(Cl)c(COc2cccc(-c3cccc(COc4cc(OCc5cncc(C#N)c5)c(CN(C(C)=O)[C@@H]5COC(=O)C5)cc4Cl)c3C)c2C)cc1OCc1cncc(C#N)c1)[C@@H]1COC(=O)C1", "note": "[Compound 1050]", "IC50": 47.3}
{"smiles": "C=C1COc2cc(OCc3cccc(-c4cccc(OCC5CCCN(C)C5)c4Cl)c3C)c(Cl)cc2CN(C2CCOC2=O)C1", "note": "(stereo not drawn) [Compound 1048]", "IC50": 3830}
{"smiles": "COc1cc(OCc2cccc(-c3cccc(OCC4CCCN(C)C4)c3Cl)c2C)c(Cl)cc1CN[C@@H]1CCOC1=O", "note": "(stereo partly drawn) [Compound 1041]", "IC50": 9.1}
{"smiles": "COc1cc(OCc2cccc(-c3cccc(OCC4CCCN(C)C4)c3Cl)c2C)c(Cl)cc1CNC1CCNC1=O", "note": "(stereo not drawn) [Compound 1038]", "IC50": 4.8}
{"smiles": "COc1cc(OCc2cccc(-c3cccc(OCC4CCCN(C)C4)c3Cl)c2C)c(Cl)cc1CN[C@H]1CCOC1=O", "note": "(stereo partly drawn) [Compound 1040]", "IC50": 6.7}
{"smiles": "COc1cc(OCc2cccc(-c3cccc(OCC4CCCN(C)C4)c3Cl)c2C)c(Cl)cc1CNC1CCC(=O)NC1=O", "note": "(stereo not drawn) [Compound 1046]", "IC50": 3.1}
{"smiles": "Cc1c(COc2cc(OCc3cncc(C#N)c3)c(CNC3(C)CC(C)(C)OC3=O)cc2Cl)cccc1-c1cccc(OCC2CCCN(C)C2)c1Cl", "note": "(stereo not drawn) [Compound 1009]", "IC50": 3}
{"smiles": "Cc1c(COc2cc(OCc3cncc(C#N)c3)c(CN[C@@H]3CCOC3=O)cc2Cl)cccc1-c1cccc(COc2cc(OCc3cncc(C#N)c3)c(CN[C@@H]3CCOC3=O)cc2Cl)c1C", "note": "[Compound 1020]", "IC50": 7.3}
{"smiles": "Cc1c(COc2cc(OCc3cncc(C#N)c3)c(CN[C@H]3COC(=O)C3)cc2Cl)cccc1-c1cccc(OCC2CCCN(C)C2)c1Cl", "note": "(stereo partly drawn) [Compound 1003]", "IC50": 2}
{"smiles": "COc1cc(OCc2cccc(-c3cccc(OCC4CCCN(C)C4)c3Cl)c2C)c(Cl)cc1CNC1CCCNC1=O", "note": "(stereo not drawn) [Compound 1035]", "IC50": 2.1}
{"smiles": "Cc1c(COc2cc(OCc3cncc(C#N)c3)c(CNC3CCNC3=O)cc2Cl)cccc1-c1cccc(OCC2CCCN(C)C2)c1Cl", "note": "(stereo not drawn) [Compound 1011]", "IC50": 1.5}
{"smiles": "COc1cc(OCc2cccc(-c3cccc(OCC4CCCN(C)C4)c3Cl)c2C)c(Cl)cc1CN[C@H]1CCNC1=O", "note": "(stereo partly drawn) [Compound 1044]", "IC50": 5.6}
{"smiles": "COc1cc(OCc2cccc(-c3cccc(OCC4CCCN(C)C4)c3Cl)c2C)c(Cl)cc1CN[C@H]1CCCNC1=O", "note": "(stereo partly drawn) [Compound 1045]", "IC50": 3.6}
